Where “and” joins values, the source holds several entries; their conditions need not be identical. Equal values may be shown once.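 Tested at 5 concentrations; 48 h exposure; 96-well plates; endpoints linearly interpolated, else capped at highest concentration. GI50 = concentration required for 50% inhibition of growth. TGI is the concentration that stops growth completely.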
Experiments:
Test in all cases: DTP human tumour cell line panel, 48 h
[1] = test system: MDA-MB-231 breast
[2] = test system: COLO 205 colon
[3] = test system: T-47D breast
[4] = test system: A549 NSCLC
[5] = test system: SK-MEL-2 melanoma
[6] = test system: PC-3 prostate
[7] = test system: SW-620 colon
[8] = test system: MOLT-4 leukemia
[9] = test system: OVCAR-5 ovarian
[10] = test system: HCC-2998 colon
[11] = test system: SF-539 CNS
[12] = test system: MALME-3M melanoma
[13] = test system: NCI-H522 lung
[14] = test system: MDA-MB-435
[15] = test system: BT-549 breast
[16] = test system: UO-31 renal
[17] = test system: HCT-15 colon
[18] = test system: EKVX NSCLC
[19] = test system: OVCAR-4 ovarian
[20] = test system: SK-OV-3 ovarian
[21] = test system: IGROV1 ovarian
[22] = test system: NCI-H460 lung
[23] = test system: HL-60(TB) leukemia
[24] = test system: LOX IMVI melanoma
[25] = test system: NCI/ADR-RES ovarian
[26] = test system: A498 renal
[27] = test system: SK-MEL-5 melanoma
[28] = test system: UACC-62 melanoma
[29] = test system: SR leukemia
[30] = test system: NCI-H23 lung
[31] = test system: MCF7 breast
[32] = test system: RXF 393 renal
[33] = test system: OVCAR-8 ovarian
[34] = test system: HOP-62 NSCLC
[35] = test system: ACHN renal
[36] = test system: M14 melanoma
[37] = test system: SNB-19 CNS
[38] = test system: HT29 colon
[39] = test system: CAKI-1 renal
[40] = test system: TK-10 renal
[41] = test system: U251 CNS
[42] = test system: HS 578T breast
[43] = test system: SNB-75 CNS
[44] = test system: UACC-257 melanoma
[45] = test system: NCI-H226 lung
[46] = test system: HCT-116 colon
[47] = test system: SK-MEL-28 melanoma
[48] = test system: SF-295 CNS
[49] = test system: K-562 leukemia
[50] = test system: CCRF-CEM leukemia
[51] = test system: SN12C renal
[52] = test system: HOP-92 NSCLC
[53] = test system: RPMI-8226 leukemia
[54] = test system: 786-0 renal

## COc1cc(C)c(-c2ccc(=O)c(OC)cc2C)c(OC)c1OC
[1]
  GI50: > 100 µM and 23.5 µM
  TGI: > 100 µM
[2]
  GI50: > 100 µM and 21.8 µM
  TGI: > 100 µM and 58.6 µM
[3]
  GI50: > 100 µM and 26.3 µM
  TGI: > 100 µM
[4]
  GI50: > 100 µM and 35.5 µM
  TGI: > 100 µM
[5]
  GI50: > 100 µM and 20.5 µM
  TGI: > 100 µM
[6]
  GI50: > 100 µM and 31.9 µM
  TGI: > 100 µM
[7]
  GI50: > 100 µM and 27.9 µM
  TGI: > 100 µM
[8]
  GI50: > 100 µM and 36 µM
  TGI: > 100 µM
[9]
  GI50: > 100 µM and 41.8 µM
  TGI: > 100 µM
[10]
  GI50: > 100 µM and 33 µM
  TGI: > 100 µM
[11]
  GI50: > 100 µM and 25.8 µM
  TGI: > 100 µM
[12]
  GI50: > 100 µM and 37.8 µM
  TGI: > 100 µM
[13]
  GI50: > 100 µM and 20.2 µM
  TGI: > 100 µM and 70.1 µM
[14]
  TGI: > 100 µM and 15.3 µM
[15]
  GI50: > 100 µM and 15.2 µM
  TGI: > 100 µM
[16]
  GI50: > 100 µM and 45.4 µM
  TGI: > 100 µM
[17]
  GI50: > 100 µM and 12.9 µM
  TGI: > 100 µM
[18]
  GI50: > 100 µM and 66.5 µM
  TGI: > 100 µM
[19]
  GI50: > 100 µM and 92.2 µM
  TGI: > 100 µM
[20]
  GI50: > 100 µM and 27.1 µM
  TGI: > 100 µM
[21]
  GI50: > 100 µM and 47.3 µM
  TGI: > 100 µM
[22]
  GI50: > 100 µM and 31.7 µM
  TGI: > 100 µM
[23]
  GI50: > 100 µM and 21 µM
  TGI: > 100 µM and 94.6 µM
[24]
  TGI: > 100 µM
[25]
  GI50: > 100 µM and 27.9 µM
  TGI: > 100 µM
[26]
  GI50: > 100 µM and 14 µM
  TGI: > 100 µM and 52.5 µM
[27]
  GI50: > 100 µM and 46.1 µM
  TGI: > 100 µM
[28]
  GI50: > 100 µM and 16.6 µM
  TGI: > 100 µM
[29]
  TGI: > 100 µM
[30]
  GI50: > 100 µM and 46.9 µM
  TGI: > 100 µM
[31]
  GI50: > 100 µM and 25.3 µM
  TGI: > 100 µM
[32]
  GI50: > 100 µM and 21.1 µM
  TGI: > 100 µM and 76.5 µM
[33]
  GI50: > 100 µM and 35.3 µM
  TGI: > 100 µM
[34]
  GI50: > 100 µM and 34.3 µM
  TGI: > 100 µM
[35]
  GI50: > 100 µM and 85.1 µM
  TGI: > 100 µM
[36]
  GI50: > 100 µM and 17.3 µM
  TGI: > 100 µM
[37]
  GI50: > 100 µM and 29.3 µM
  TGI: > 100 µM
[38]
  GI50: > 100 µM and 25.2 µM
  TGI: > 100 µM and 93.5 µM
[39]
  GI50: > 100 µM and 19.5 µM
  TGI: > 100 µM
[40]
  GI50: > 100 µM
  TGI: > 100 µM
[41]
  GI50: > 100 µM and 30.9 µM
  TGI: > 100 µM
[42]
  GI50: > 100 µM and 15.9 µM
  TGI: > 100 µM and 64.1 µM
[43]
  GI50: 39.4 µM and 5.4 µM
  TGI: > 100 µM and 43.4 µM
[44]
  GI50: > 100 µM and 71.3 µM
  TGI: > 100 µM
[45]
  GI50: > 100 µM and 86.5 µM
  TGI: > 100 µM
[46]
  GI50: > 100 µM and 25 µM
  TGI: > 100 µM
[47]
  GI50: > 100 µM
  TGI: > 100 µM
[48]
  GI50: > 100 µM and 22.9 µM
  TGI: > 100 µM
[49]
  TGI: > 100 µM
[50]
  GI50: > 100 µM and 29.7 µM
  TGI: > 100 µM
[51]
  GI50: > 100 µM and 38 µM
  TGI: > 100 µM
[52]
  GI50: > 100 µM and 10.2 µM
  TGI: > 100 µM
[53]
  GI50: > 100 µM and 41.4 µM
  TGI: > 100 µM
[54]
  GI50: > 100 µM and 46.2 µM
  TGI: > 100 µM

From PubChem BioAssay (NCI)
